Results: PubChem BioAssay AID330 (DTP/NCI, 2004)
Several values for one entry are separate records, joined by “and”; a condition that tells them apart may be missing. Equal values may be shown once. Toxic doses and inconclusive results are not listed. Rule for the calls: active = survival T/C of 150% or more; inactive = T/C below 125% in these data.

System: P388 leukemia ip, CD2F1 mice, survival T/C
Assay: NCI In Vivo Anticancer Drug Screen. Data for tumor model P388 Leukemia (intraperitoneal) in CD2F1 (CDF1) mice
Details: endpoint: median survival time, higher = longer survival
How it was run: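 Mice carrying the transplanted tumor received test compound or vehicle. Survival was recorded in each group, and the value is the treated-group measurement divided by that of the vehicle-treated control group.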

[1] = dose: 50.0 mg/kg/injection, schedule: Q01DX005 (ip), vehicle: saline with Tween-80
[2] = dose: 100.0 mg/kg/injection, schedule: Q01DX005 (ip), vehicle: saline with Tween-80
[3] = dose: 200.0 mg/kg/injection, schedule: Q01DX005 (ip), vehicle: saline with Tween-80
[4] = dose: 50.0 mg/kg/injection, schedule: Q01DX009 (ip), vehicle: saline with Tween-80
[5] = dose: 100.0 mg/kg/injection, schedule: Q01DX009 (ip), vehicle: saline with Tween-80
[6] = dose: 200.0 mg/kg/injection, schedule: Q01DX009 (ip), vehicle: saline with Tween-80
[7] = dose: 25.0 mg/kg/injection, schedule: Q01DX009 (ip), vehicle: saline with Tween-80
[8] = dose: 12.5 mg/kg/injection, schedule: Q01DX009 (ip), vehicle: other
[9] = dose: 50.0 mg/kg/injection, schedule: Q01DX005 (ip), vehicle: Klucel (hydroxypropylcellulose) (HPC)
[10] = dose: 100.0 mg/kg/injection, schedule: Q01DX005 (ip), vehicle: Klucel (hydroxypropylcellulose) (HPC)
[11] = dose: 200.0 mg/kg/injection, schedule: Q01DX005 (ip), vehicle: Klucel (hydroxypropylcellulose) (HPC)
[12] = dose: 50.0 mg/kg/injection, schedule: Q01DX005 (ip), vehicle: saline
[13] = dose: 100.0 mg/kg/injection, schedule: Q01DX005 (ip), vehicle: saline
[14] = dose: 200.0 mg/kg/injection, schedule: Q01DX005 (ip), vehicle: saline
[15] = dose: 100.0 mg/kg/injection, schedule: Q04DX003 (ip), vehicle: Klucel (hydroxypropylcellulose) (HPC)
[16] = dose: 200.0 mg/kg/injection, schedule: Q04DX003 (ip), vehicle: Klucel (hydroxypropylcellulose) (HPC)

Measured: T/C

CN(C)N(P(c1ccccc1)c1ccccc1)P(c1ccccc1)c1ccccc1
inactive: dose: 100.0 mg/kg/injection, schedule: Q04DX003 (ip), vehicle: saline with Tween-80 93 % of control | dose: 200.0 mg/kg/injection, schedule: Q04DX003 (ip), vehicle: saline with Tween-80 92 % of control | dose: 400.0 mg/kg/injection, schedule: Q04DX003 (ip), vehicle: saline with Tween-80 94 % of control

CSC(=S)N/N=C(\Cc1ccccc1)c1ccccn1
inactive: dose: 12.5 mg/kg/injection, schedule: Q01DX005 (ip), vehicle: saline with Tween-80 103 % of control | dose: 25.0 mg/kg/injection, schedule: Q01DX005 (ip), vehicle: saline with Tween-80 106 % of control | [1] 99 % of control and 108 % of control | [2] 107 % of control | [3] 107 % of control

Cc1ccc(C(O)(C(F)(F)F)C(O)(c2ccc(C)cc2)C(F)(F)F)cc1 (configuration not stated)
inactive: [4] 107 % of control and 100 % of control | [5] 107 % of control and 104 % of control | [6] 101 % of control and 105 % of control

CC(C)(C)N=C(CCSc1ccccc1)Nc1ccccc1Cl
inactive: [4] 108 % of control | [5] 109 % of control | [6] 113 % of control

O=S1(=O)CC(c2ccccc2)=NN=C(c2ccccc2)C1
inactive: dose: 50.0 mg/kg/injection, schedule: Q01DX009 (ip), vehicle: Klucel (hydroxypropylcellulose) (HPC) 93 % of control | dose: 100.0 mg/kg/injection, schedule: Q01DX009 (ip), vehicle: Klucel (hydroxypropylcellulose) (HPC) 93 % of control | dose: 200.0 mg/kg/injection, schedule: Q01DX009 (ip), vehicle: Klucel (hydroxypropylcellulose) (HPC) 88 % of control

C=Cn1c([N+](=O)[O-])cnc1/C=C/c1ccc(C(=O)N(CC)CC)cc1
inactive: dose: 100.0 mg/kg/injection, schedule: Q04DX002 (ip), vehicle: saline with Tween-80 99 % of control | dose: 200.0 mg/kg/injection, schedule: Q04DX002 (ip), vehicle: saline with Tween-80 100 % of control | dose: 400.0 mg/kg/injection, schedule: Q04DX002 (ip), vehicle: saline with Tween-80 100 % of control

CCOc1cc(=O)cc2n(-c3cc(OCC)c(OC(C)=O)c(OCC)c3)c3ccccc3nc1-2
inactive: dose: 50.0 mg/kg/injection, schedule: Q01DX009 (ip), vehicle: suspension in saline 99 % of control | dose: 100.0 mg/kg/injection, schedule: Q01DX009 (ip), vehicle: suspension in saline 100 % of control | dose: 200.0 mg/kg/injection, schedule: Q01DX009 (ip), vehicle: suspension in saline 99 % of control

COc1cc(O)c2c(O)c3c(=O)cc(C)oc3cc2c1
inactive: [7] 102 % of control | [4] 109 % of control | [5] 112 % of control

CCCCCOc1ccc(C(=O)Oc2ccc(N=Nc3nccs3)cc2)cc1
inactive: [1] 98 % of control | [2] 101 % of control | [3] 96 % of control

c1ccc2oc(NCCSSCCNc3nc4ccccc4o3)nc2c1
inactive: [8] 100 % of control | dose: 25.0 mg/kg/injection, schedule: Q01DX009 (ip), vehicle: other 92 % of control | dose: 50.0 mg/kg/injection, schedule: Q01DX009 (ip), vehicle: other 86 % of control and 93 % of control

CCCCCCCCC(=O)N(C)OC
inactive: [7] 110 % of control | [4] 110 % of control | [5] 105 % of control

O=C(Nc1ccc(C2=NCCN2)c(O)c1)c1cccc(C(=O)Nc2ccc(C3=NCCN3)c(O)c2)c1
inactive: dose: 25.0 mg/kg/injection, schedule: Q01DX005 (ip), vehicle: Klucel (hydroxypropylcellulose) (HPC) 97 % of control | [9] 97 % of control | [10] 97 % of control | [11] 102 % of control

COC(=O)C(=O)C(C)C(=O)C(C)c1nc2n(c1O)C(=N)N=N2 (configuration not stated)
inactive: [12] 98 % of control | [13] 97 % of control | [14] 96 % of control

CC1(C)OC2(C=CC(C)([N+](=O)[O-])C=C2)OC1=O (configuration not stated)
inactive: [9] 101 % of control | [10] 94 % of control | [11] 100 % of control

Cc1cc2nc(Cc3nc4cc(C)c(C)cc4[nH]3)[nH]c2cc1C
inactive: [7] 90 % of control | [4] 90 % of control | [5] 100 % of control and 95 % of control | [6] 90 % of control

O=C1/C(=C\c2ccc([N+](=O)[O-])cc2)CS(=O)(=O)C/C1=C/c1ccc([N+](=O)[O-])cc1
inactive: [7] 95 % of control | [4] 94 % of control | [5] 105 % of control | [6] 116 % of control

CCOC(=O)Cc1csc(=S)n1C
inactive: [1] 102 % of control | [2] 109 % of control | [3] 109 % of control

O=c1c2c([nH]c3c1ccc1c(=O)c4c([nH]c13)CCCC4)CCCC2
inactive: [4] 98 % of control | [5] 96 % of control | [6] 94 % of control

CC1(C)C(=O)c2ccccc2-c2ccccc21
inactive: [1] 101 % of control | [2] 104 % of control | [3] 103 % of control

CCCCCCCCCCCCCCCC[N+]1(CC)CCCC1
inactive: dose: 0.09 mg/kg/injection, schedule: Q01DX009 (ip), vehicle: saline 100 % of control | dose: 0.19 mg/kg/injection, schedule: Q01DX009 (ip), vehicle: saline 98 % of control | dose: 0.39 mg/kg/injection, schedule: Q01DX009 (ip), vehicle: saline 112 % of control and 93 % of control

[O-][n+]1c2ccccc2nc2ccccc21
inactive: [9] 115 % of control | [10] 110 % of control | [11] 100 % of control

Cn1cc2c(=O)n(C)ncc2n1
inactive: dose: 60.0 mg/kg/injection, schedule: Q01DX005 (ip), vehicle: saline 100 % of control | dose: 120.0 mg/kg/injection, schedule: Q01DX005 (ip), vehicle: saline 109 % of control | dose: 240.0 mg/kg/injection, schedule: Q01DX005 (ip), vehicle: saline 100 % of control

Cc1cc(=O)oc2c3c4c(cc12)CCCN4CCC3
inactive: [15] 111 % of control | [16] 109 % of control

COCCCNCC(=O)Nc1ccc(S(=O)(=O)c2ccc(NC(=O)CNCCCOC)cc2)cc1
inactive: dose: 50.0 mg/kg/injection, schedule: Q01DX005 (ip), vehicle: acid diluted with saline 107 % of control | dose: 100.0 mg/kg/injection, schedule: Q01DX005 (ip), vehicle: acid diluted with saline 104 % of control | dose: 200.0 mg/kg/injection, schedule: Q01DX005 (ip), vehicle: acid diluted with saline 112 % of control

O=C1c2ccccc2C(=O)C2C3C=CC(CC3)C12 (configuration not stated)
inactive: [9] 105 % of control | [10] 102 % of control | [11] 99 % of control

c1ccc(CC2NC(Cc3ccccc3)N3C(Cc4ccccc4)N23)cc1 (configuration not stated)
inactive: [15] 102 % of control | [16] 100 % of control | dose: 400.0 mg/kg/injection, schedule: Q04DX003 (ip), vehicle: Klucel (hydroxypropylcellulose) (HPC) 93 % of control

CCOC(=O)C1=C(c2ccccc2)OC(N)=C(C#N)C1c1ccccc1 (configuration not stated)
inactive: [9] 107 % of control | [10] 103 % of control | [11] 101 % of control

CCCCN1C(=O)NC(C)C1=O (configuration not stated)
inactive: [1] 99 % of control | [2] 108 % of control | [3] 103 % of control

COc1ccc(OC)c2c1CCC(O)(C#N)C2 (configuration not stated)
inactive: dose: 3.13 mg/kg/injection, schedule: Q01DX009 (ip), vehicle: other 100 % of control and 101 % of control | dose: 6.25 mg/kg/injection, schedule: Q01DX009 (ip), vehicle: other 100 % of control and 102 % of control | [8] 101 % of control

C/C=C1/CN2CCC1CC2C(O)c1ccnc2ccc(OCCO)cc12 (configuration not stated)
inactive: [12] 97 % of control | [13] 93 % of control | [14] 94 % of control

COC(=O)C1=CN(C)C(c2ccccc2)C=C1 (configuration not stated)
inactive: [1] 103 % of control | [2] 107 % of control | [3] 112 % of control
